Test results from the supplement of paper PMC10307832.

Key:
Assay in all cases: relative viability (nuclei count vs DMSO), 5 days (fraction); higher = more cells survive
[1] = compound: Cn1cc(-c2cnc3ccc4ccc(CS(=O)(=O)NCc5ccccn5)cc4c(=O)c3c2)cn1 [MK-8033] + Cc1cc(Nc2cc(N3CCN(C)CC3)nc(Sc3ccc(NC(=O)C4CC4)cc3)n2)n[nH]1 [Tozasertib] (partner 0.1 µM)
Outline: (§1)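 Values are medians from duplicate plates. Each reflects relative viability, defined as the nuclei count of treated wells over that of vehicle wells. Lung cancer cell lines in 1536-well plates were pin-tool dosed one day after seeding with one drug alone or with a fixed anchor-drug dose plus five library-drug doses (not always all listed) in √10 steps, then fixed, stained and imaged at 4× after 5 days.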

[2] = compound: CC[C@@H](C)CNCC(=O)N1CCC2=C([C@@H]1COC3=CC=CC(=C3)C)C=CS2 [RU-SKI 43] + C[C@@H](Oc1cc(-c2cnn(C3CCNCC3)c2)cnc1N)c1c(Cl)ccc(F)c1Cl [Crizotinib] (partner 1 µM)
Outline: as §1

[3] = compound: Cn1cc(-c2cnc3ccc4ccc(CS(=O)(=O)NCc5ccccn5)cc4c(=O)c3c2)cn1 [MK-8033] + C[C@]1(O)C[C@@H](c2nc(-c3ccc4ccc(-c5ccccc5)nc4c3)c3c(N)nccn32)C1 [Linsitinib] (partner 1 µM)
Outline: as §1

[4] = compound: CCc1c2c(nc3ccc(OC(=O)N4CCC(N5CCCCC5)CC4)cc13)-c1cc3c(c(=O)n1C2)COC(=O)[C@]3(O)CC [Irinotecan] + CS(=O)(=O)CCNCc1ccc(-c2ccc3ncnc(Nc4ccc(OCc5cccc(F)c5)c(Cl)c4)c3c2)o1 [Lapatinib] (partner 2 µM)
Outline: as §1

Cell Line	relative viability ([1]; first compound 0.02 µM)	relative viability ([1]; first compound 0.06325 µM)	relative viability ([1]; first compound 0.2 µM)	relative viability ([1]; first compound 0.6325 µM)	relative viability ([1]; first compound 2 µM)	relative viability ([2]; first compound 0.1 µM)	relative viability ([2]; first compound 0.3162 µM)	relative viability ([2]; first compound 1 µM)	relative viability ([2]; first compound 3.162 µM)	relative viability ([2]; first compound 10 µM)	relative viability ([3]; first compound 0.02 µM)	relative viability ([3]; first compound 0.06325 µM)	relative viability ([3]; first compound 0.2 µM)	relative viability ([3]; first compound 0.6325 µM)	relative viability ([3]; first compound 2 µM)	relative viability ([4]; first compound 0.6325 µM)	relative viability ([4]; first compound 2 µM)	relative viability ([4]; first compound 6.325 µM)	relative viability ([4]; first compound 20 µM)
NCI-H1437	0.408	0.424	0.401	0.395	0.372	0.873	1.29	1.11	0.93	0.875	0.976	1.01	0.94	1.01	0.917	0.527	0.493	0.253	0.117
NCI-H1651	0.746	0.667	0.734	0.524	0.557	0.886	0.971	0.891	0.887	0.865	1.07	0.835	0.824	1.03	0.856	0.293	0.536	0.179	0.101
NCI-H1666	0.588	0.587	0.589	0.648	0.614	0.966	1.01	0.971	0.945	0.571	0.872	0.754	0.83	0.66	0.81	0.466	0.556	0.35	0.223
NCI-H1734	0.243	0.215	0.3	0.261	0.242	0.724	0.709	0.745	0.652	0.547	0.904	0.769	0.852	0.93	0.858	0.883	0.588	0.186	0.191
NCI-H1755	0.552	0.473	0.536	0.537	0.536	0.809	1.15	0.953	0.889	0.74	0.996	0.993	0.954	0.988	0.946	0.883	0.9	0.309	0.318
NCI-H1915	0.435	0.424	0.391	0.439	0.362	0.913	1.36	0.938	0.957	0.959	1.12	1.07	1.09	1.08	1.15	0.434	0.373	0.147	0.15
NCI-H1944	0.237	0.218	0.209	0.261	0.23	1.17	1.19	1.25	1.25	0.991	1.2	–	1.12	1.23	1.37	0.563	0.369	0.178	0.187
NCI-H1975	0.725	0.608	0.677	–	0.352	1.04	1.3	1.12	0.925	0.709	0.925	0.957	0.873	0.956	0.905	0.86	0.689	0.302	0.14
NCI-H1993	0.564	0.525	0.561	0.525	0.583	0.839	0.882	0.84	0.945	0.758	0.773	0.766	0.73	0.751	0.687	0.802	0.76	0.671	0.458
NCI-H2009	0.776	0.703	0.694	0.707	0.737	1.07	1.06	1.06	1.03	0.905	1.21	1.12	1.07	1.21	1.11	0.308	0.445	0.294	0.12
NCI-H2023	0.374	0.273	0.251	0.221	0.122	0.623	0.685	0.602	0.58	0.428	0.651	0.533	0.473	0.536	0.415	0.484	0.408	0.129	0.045
NCI-H2085	0.812	0.708	0.73	0.841	0.593	0.881	0.709	0.805	0.783	0.761	0.831	0.797	0.837	0.943	0.825	0.592	0.608	0.473	0.515
NCI-H2087	0.241	0.266	0.237	0.246	0.247	0.837	1.12	0.915	0.783	0.733	1.15	0.973	0.832	0.91	0.915	0.299	0.3	0.168	0.205
NCI-H2126	0.773	0.749	0.772	0.841	0.79	1.01	1.24	1.06	1.06	1.01	0.727	0.659	0.673	0.686	0.715	–	0.632	0.304	0.357
NCI-H2228	0.199	0.214	0.168	0.253	0.214	0.498	0.416	0.448	0.579	0.306	0.577	0.629	0.537	0.761	0.625	0.798	0.772	0.461	0.353
NCI-H2347	0.545	0.574	0.584	0.552	0.436	0.745	0.568	0.778	0.67	0.735	0.884	0.855	0.958	0.977	0.895	0.682	0.738	0.449	0.444
